Experimental data reported in the NIST ThermoML archive (doi:10.1016/j.jct.2011.08.008).

Assay: xn = mol fraction of the nth substance listed
Details: 101 kPa, Liquid, Vibrating tube method

CCCCn1cc[n+](C)c1.[Cl-] [1-butyl-3-methylimidazolium chloride] + OCCO
mass density [kg/m3]
Details	298.15 K	308.15 K	318.15 K
x1 = 0.0132	1108.21	1101.08	1093.97
x1 = 0.0294	1106.1	1099.21	1092.21
x1 = 0.0484	1104.02	1097.19	1090.29
x1 = 0.1028	1098.95	1092.29	1085.61
x1 = 0.2101	1092.39	1085.44	1079.22
x1 = 0.3094	1088.58	1081.93	1075.58
x1 = 0.4202	1085.81	1079.23	1072.98
x1 = 0.4947	1084.46	1078.12	1072
x1 = 0.5992	1083.24	1077.18	1071.11
x1 = 0.7117	1082.47	1076.69	1070.76
x1 = 0.8143	1082.35	1076.51	1070.75
x1 = 0.9126	1082.27	1076.49	1070.88
x1 = 1	1082.01	1076.51	1071.04

CCCCn1cc[n+](C)c1.COS(=O)(=O)[O-] [1-butyl-3-methylimidazolium methyl sulfate] + OCCO
mass density [kg/m3]
Details	298.15 K	308.15 K	318.15 K
x1 = 0.0052	1110.66	1103.5	1096.12
x1 = 0.0512	1119.06	1111.91	1104.2
x1 = 0.1106	1128.96	1121.84	1114.04
x1 = 0.2135	1145.36	1138.27	1130.75
x1 = 0.3018	1156.55	1149.5	1142.35
x1 = 0.4059	1167.63	1160.69	1153.59
x1 = 0.5066	1176.9	1170.01	1162.97
x1 = 0.6163	1185.67	1178.75	1171.77
x1 = 0.7	1191.66	1184.71	1177.89
x1 = 0.8408	1199.42	1192.62	1185.85
x1 = 0.9244	1202.97	1196.25	1189.52
x1 = 1	1205.84	1199.25	1192.7

CCCCCCCC[n+]1ccn(C)c1.[Cl-] [1-methyl-3-octylimidazolium chloride] + OCCO
mass density [kg/m3]
Details	298.15 K	308.15 K	318.15 K
x1 = 0.0077	1106.07	1098.89	1091.83
x1 = 0.0589	1085.93	1078.94	1072.21
x1 = 0.119	1068.7	1061.98	1055.33
x1 = 0.2112	1050.79	1044.34	1037.95
x1 = 0.2985	1039.53	1033.27	1026.92
x1 = 0.4021	1030.4	1024.26	1017.91
x1 = 0.5118	1023.63	1017.52	1011.2
x1 = 0.6041	1019.49	1013.41	1007.18
x1 = 0.6999	1016.21	1010.14	1003.94
x1 = 0.7837	1013.92	1007.87	1001.74
x1 = 0.8328	1012.75	1006.75	1000.65
x1 = 0.9583	1010.27	1004.34	998.43
x1 = 1	1009.56	1003.74	997.92
